According to paper PMC11484510, “Antibacterial activity of structurally diverse natural prenylated isobavachalcone derivatives” (RSC Advances, 2024):
≈ marks a conversion by molar mass, not a printed value.

Experiments:
[1] = tested on: S. aureus ATCC 29213; assay: MBC, plating on MHA; assay type: cell-based; details: Staphylococcus aureus, ATCC29213; more than 99.9% of the cells killed; read-out: Minimum bactericidal concentration (MBC) S. aureus
Source text: (§1) The bacterial strains S. aureus ATCC 29213, MRSA ATCC 15187, E. coli ATCC 25922, and P. aeruginosa ATCC 27853 were obtained from ATCC (American Type Culture Collection). Cation-adjusted Mueller–Hinton broth (MHB; Becton–Dickinson, Cockeysville, MD) was used to determine the minimum inhibitory concentration (MIC). Mueller–Hinton agar (MHA; Becton–Dickinson) was used for minimum bactericidal concentration (MBC) studies. Alamar blue (Himedia) was used to detect the MIC value.
(§2) MBC is defined as the lowest concentration of the compound at which more than 99.9% of the cells were killed compared with the growth control. The minimum compound concentration at which no visible bacterial growth was observed was taken as the Minimum Bactericidal Concentration (MBC).[50]

[2] = tested on: E. coli ATCC 25922; assay: MBC, plating on MHA; assay type: cell-based; details: Escherichia coli, ATCC25922; more than 99.9% of the cells killed; read-out: Minimum bactericidal concentration (MBC) E. coli
Source text: as §1, §2

[3] = tested on: P. aeruginosa ATCC 27853; assay: MBC, plating on MHA; assay type: cell-based; details: Pseudomonas aeruginosa, ATCC27853; more than 99.9% of the cells killed; read-out: Minimum bactericidal concentration (MBC) P. aeruginosa
Source text: as §1, §2

[4] = Cell viability assay (MTT); assay type: cell-based, murine; details: mouse, RAW 264.7 macrophage cells; RAW 264.7 macrophage cell line, MTT assay
Description: RAW 264.7 cells were acquired from the American type culture collection (ATCC, Manassas, VA) and cultured in Dulbecco's modified eagle's medium (DMEM, Gibco, Life Technologies, NY) supplemented with 10% fetal bovine serum (FBS) at 37 °C and 5% CO2. MTT dye (Himedia) was used to detect CC50 values. The antibiotics ciprofloxacin hydrochloride monohydrate (Himedia), kanamycin sulfate (Himedia), and vancomycin (Himedia) were used for reference in microbiological assays.
The effect of compounds (IBC, IBC-2, and IBC-3) on the viability of cells was evaluated at different concentrations against macrophage cell lines through the 3-(4,5-dimethylthiazol2-yl)-2, 5-diphenyltetrazolium bromide (MTT) assay. The RAW 264.7 cells are monocyte/macrophage-like cells originating from an Abelson leukemia virus-transformed cell line derived from BALB/c mice. Due to their reliability and consistency, these cell lines are widely utilized for both in vitro and in vivo analyses.[52] The MTT assay is a colorimetric assay used to measure the viability and cytotoxicity of cells. The cells (2 × 10^4 cells per well) were grown at 37 °C with 5% CO2 for 48 hours, then exposed to compounds with different concentrations. […] After 20–21 hours, 20 μL of MTT dye at 2.5 mg mL^−1 concentration was added to each well and incubated for 4 hours. 100 μL DMSO solubilized the water-insoluble purple and white formazan produced.[53] The formation of the formazan salt by mitochondrial dehydrogenases was measured at 570.0 nm after incubating for 20 min. The percentage cytotoxicity was calculated with respect to the untreated cells, and the CC50 value was calculated. CC50 was defined as the concentration of an inhibitor that reduces cellular activities by 50% compared to untreated control cultures. The CC50 values were calculated as the concentration where the absorbance was reduced by 50% using GraphPad Prism software.[54] The selectivity index (SI) determines the safety profile of the compound. It is calculated as the ratio of compound concentration at which 50% of cell growth is inhibited compared to untreated cells (CC50) to the effective inhibiting concentration against bacterial strain (MIC). The high SI (>10 fold of MIC) of a drug is proven to have a favorable safety profile.[28] Selectivity index (SI) = CC50 of the compound (μM)/MIC of the compound (μM).

Compound: CC(C)=CCc1c(O)ccc2c1O/C(=C\c1ccc(O)cc1)C2=O [IBC-3, (Z)-6-hydroxy-2-(4-hydroxybenzylidene)-7-(3-methylbut-2-en-1-yl)benzofuran-3(2H)-one]
- MBC [1]: 25 µM (≈ 8.06 µg/mL)
- MBC [2]: 25 µM (≈ 8.06 µg/mL)
- MBC [3]: 100 µM (≈ 32.2 µg/mL)
- CC50 [4]: 50 µM
